Laboratory results reported in the NIST ThermoML archive (doi:10.1016/j.tca.2005.03.009).

Test: excess molar enthalpy (molar enthalpy of mixing); xn = mol fraction of the nth substance listed
Settings: 298.15 K, 10000 kPa, Liquid, Flow calorimetry

CCC(C)=O [butanone] + CCOC(C)=O
Settings | excess molar enthalpy [kJ/mol]
x2 = 0.047 | 0.297
x2 = 0.082 | 0.5
x2 = 0.118 | 0.692
x2 = 0.153 | 0.84
x2 = 0.189 | 1
x2 = 0.225 | 1.13
x2 = 0.262 | 1.26
x2 = 0.298 | 1.35
x2 = 0.335 | 1.45
x2 = 0.371 | 1.52
x2 = 0.408 | 1.58
x2 = 0.446 | 1.63
x2 = 0.483 | 1.67
x2 = 0.52 | 1.69
x2 = 0.558 | 1.69
x2 = 0.596 | 1.68
x2 = 0.634 | 1.62
x2 = 0.673 | 1.57
x2 = 0.711 | 1.48
x2 = 0.75 | 1.38
x2 = 0.789 | 1.24
x2 = 0.828 | 1.09
x2 = 0.867 | 0.905
x2 = 0.907 | 0.68
x2 = 0.947 | 0.431
x2 = 0.96 | 0.324
x2 = 0.974 | 0.217

CCOC(C)=O [ethyl acetate] + CC(C)O
Settings | excess molar enthalpy [kJ/mol]
x1 = 0.039 | 0.272
x1 = 0.07 | 0.475
x1 = 0.1 | 0.647
x1 = 0.132 | 0.805
x1 = 0.163 | 0.952
x1 = 0.196 | 1.08
x1 = 0.229 | 1.21
x1 = 0.262 | 1.31
x1 = 0.296 | 1.41
x1 = 0.331 | 1.49
x1 = 0.366 | 1.56
x1 = 0.402 | 1.62
x1 = 0.439 | 1.65
x1 = 0.476 | 1.69
x1 = 0.514 | 1.71
x1 = 0.553 | 1.7
x1 = 0.592 | 1.68
x1 = 0.632 | 1.63
x1 = 0.673 | 1.57
x1 = 0.715 | 1.47
x1 = 0.758 | 1.34
x1 = 0.801 | 1.19
x1 = 0.845 | 0.999
x1 = 0.891 | 0.761
x1 = 0.937 | 0.482
x1 = 0.952 | 0.378
x1 = 0.969 | 0.254

CCOC(C)=O [ethyl acetate] + CCCO
Settings | excess molar enthalpy [kJ/mol]
x1 = 0.039 | 0.251
x1 = 0.068 | 0.397
x1 = 0.098 | 0.542
x1 = 0.129 | 0.674
x1 = 0.16 | 0.796
x1 = 0.192 | 0.919
x1 = 0.225 | 1.02
x1 = 0.258 | 1.12
x1 = 0.291 | 1.2
x1 = 0.326 | 1.28
x1 = 0.361 | 1.36
x1 = 0.396 | 1.41
x1 = 0.433 | 1.46
x1 = 0.47 | 1.48
x1 = 0.508 | 1.51
x1 = 0.547 | 1.51
x1 = 0.586 | 1.5
x1 = 0.627 | 1.46
x1 = 0.668 | 1.42
x1 = 0.71 | 1.34
x1 = 0.753 | 1.24
x1 = 0.797 | 1.11
x1 = 0.842 | 0.932
x1 = 0.888 | 0.725
x1 = 0.935 | 0.457
x1 = 0.951 | 0.351
x1 = 0.968 | 0.24

CCOC(C)=O [ethyl acetate] + CCO
Settings | excess molar enthalpy [kJ/mol]
x1 = 0.03 | 0.141
x1 = 0.054 | 0.247
x1 = 0.078 | 0.366
x1 = 0.104 | 0.47
x1 = 0.13 | 0.566
x1 = 0.157 | 0.661
x1 = 0.184 | 0.755
x1 = 0.213 | 0.846
x1 = 0.243 | 0.931
x1 = 0.274 | 1.01
x1 = 0.306 | 1.08
x1 = 0.339 | 1.15
x1 = 0.373 | 1.2
x1 = 0.409 | 1.25
x1 = 0.446 | 1.3
x1 = 0.485 | 1.33
x1 = 0.525 | 1.34
x1 = 0.567 | 1.33
x1 = 0.611 | 1.31
x1 = 0.657 | 1.26
x1 = 0.705 | 1.19
x1 = 0.754 | 1.09
x1 = 0.807 | 0.947
x1 = 0.861 | 0.763
x1 = 0.919 | 0.509
x1 = 0.939 | 0.4
x1 = 0.96 | 0.274

CCOC(C)=O [ethyl acetate] + CO
Settings | excess molar enthalpy [kJ/mol]
x1 = 0.057 | 0.183
x1 = 0.086 | 0.273
x1 = 0.113 | 0.334
x1 = 0.188 | 0.523
x1 = 0.257 | 0.68
x1 = 0.319 | 0.809
x1 = 0.377 | 0.897
x1 = 0.43 | 0.968
x1 = 0.478 | 0.996
x1 = 0.524 | 1.01
x1 = 0.566 | 1.01
x1 = 0.605 | 0.987
x1 = 0.641 | 0.977
x1 = 0.675 | 0.945
x1 = 0.707 | 0.91
x1 = 0.738 | 0.87
x1 = 0.766 | 0.822
x1 = 0.793 | 0.768
x1 = 0.818 | 0.711
x1 = 0.842 | 0.651
x1 = 0.864 | 0.585
x1 = 0.886 | 0.518
x1 = 0.906 | 0.447
x1 = 0.926 | 0.368
x1 = 0.944 | 0.285
x1 = 0.962 | 0.2
x1 = 0.979 | 0.106
